Data as given in PMC12198282, “Application of a high-density microelectrode array assay using a 3D human iPSC-derived brain microphysiological system model for in vitro neurotoxicity screening of environmental compounds” (Archives of Toxicology, 2025).
Like-named read-outs stand apart in the source and are kept apart here.

Legend:
[1] = tested on: human iPSC-derived 3D BrainSpheres; test: BrainSphere MEA assay (HD-MEA, 13-day exposure, concentration-response); assay type: cell-based; settings: for AC50: concentration at 50% maximal activity, Supplement 3 prints it also for curves with hit call 0; for hitc Mean.Spheroid.Burst.Duration: key: 1 (active); 0 (inactive); for hitc Mean.Spheroid.Burst.ISI: key: 1 (active); 0 (inactive); for hitc Mean.Spheroid.Burst.Peak.Firing.Rate: key: 1 (active); 0 (inactive); for hitc Mean.Spheroid.Firing.Rate: key: 1 (active); 0 (inactive); for hitc Mean.Spheroid.IBI: key: 1 (active); 0 (inactive); for hitc Mean.Spheroid.Nonburst.ISI: key: 1 (active); 0 (inactive); for hitc Mean.Spheroid.Spikes.per.Burst.per.Electrode: key: 1 (active); 0 (inactive); for hitc Mean.Spheroid.Spikes.per.Burst: key: 1 (active); 0 (inactive); for hitc Spheroid.Burst.Frequency: key: 1 (active); 0 (inactive); for hitc Spheroid.Spike.Amplitude.90th.Percentile: key: 1 (active); 0 (inactive)
How it was run: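 7-week-differentiated BrainSpheres were plated on laminin/poly-D-lysine-coated HD-MEA chips and given 2 days to attach. Neural activity was recorded from the same regions of interest through a 13-day exposure, from day 0 onward. Ten network and general activity endpoints were derived per BrainSphere, with ≥3 biological replicates.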

[2] = tested on: 2D rat cortical cultures; settings: cited from earlier work; for hitc CCTE Shafer MEA dev active electrodes number: key: 1 (active); 0 (inactive); for hitc CCTE Shafer MEA dev burst duration mean: key: 1 (active); 0 (inactive); for hitc CCTE Shafer MEA dev burst rate: key: 1 (active); 0 (inactive); for hitc CCTE Shafer MEA dev bursting electrodes number: key: 1 (active); 0 (inactive); for hitc CCTE Shafer MEA dev correlation coefficient mean: key: 1 (active); 0 (inactive); for hitc CCTE Shafer MEA dev firing rate mean: key: 1 (active); 0 (inactive); for hitc CCTE Shafer MEA dev inter network spike interval mean: key: 1 (active); 0 (inactive); for hitc CCTE Shafer MEA dev interburst interval mean: key: 1 (active); 0 (inactive); for hitc CCTE Shafer MEA dev mutual information norm: key: 1 (active); 0 (inactive); for hitc CCTE Shafer MEA dev network spike duration std: key: 1 (active); 0 (inactive); for hitc CCTE Shafer MEA dev network spike number: key: 1 (active); 0 (inactive); for hitc CCTE Shafer MEA dev network spike peak: key: 1 (active); 0 (inactive); for hitc CCTE Shafer MEA dev per burst interspike interval: key: 1 (active); 0 (inactive)
[3] = tested on: 2D rat cortical cultures; settings: cytotoxicity LDH, cited from earlier work; for hitc CCTE Shafer MEA dev active electrodes number: key: 1 (active); 0 (inactive); for hitc CCTE Shafer MEA dev burst duration mean: key: 1 (active); 0 (inactive); for hitc CCTE Shafer MEA dev burst rate: key: 1 (active); 0 (inactive); for hitc CCTE Shafer MEA dev bursting electrodes number: key: 1 (active); 0 (inactive); for hitc CCTE Shafer MEA dev correlation coefficient mean: key: 1 (active); 0 (inactive); for hitc CCTE Shafer MEA dev firing rate mean: key: 1 (active); 0 (inactive); for hitc CCTE Shafer MEA dev inter network spike interval mean: key: 1 (active); 0 (inactive); for hitc CCTE Shafer MEA dev interburst interval mean: key: 1 (active); 0 (inactive); for hitc CCTE Shafer MEA dev mutual information norm: key: 1 (active); 0 (inactive); for hitc CCTE Shafer MEA dev network spike duration std: key: 1 (active); 0 (inactive); for hitc CCTE Shafer MEA dev network spike number: key: 1 (active); 0 (inactive); for hitc CCTE Shafer MEA dev network spike peak: key: 1 (active); 0 (inactive); for hitc CCTE Shafer MEA dev per burst interspike interval: key: 1 (active); 0 (inactive)
[4] = tested on: 2D rat cortical cultures; settings: cited from earlier work; for AC50: rNFA mc5; for hitc CCTE Shafer MEA dev active electrodes number: key: 1 (active); 0 (inactive); for hitc CCTE Shafer MEA dev burst duration mean: key: 1 (active); 0 (inactive); for hitc CCTE Shafer MEA dev burst rate: key: 1 (active); 0 (inactive); for hitc CCTE Shafer MEA dev bursting electrodes number: key: 1 (active); 0 (inactive); for hitc CCTE Shafer MEA dev correlation coefficient mean: key: 1 (active); 0 (inactive); for hitc CCTE Shafer MEA dev firing rate mean: key: 1 (active); 0 (inactive); for hitc CCTE Shafer MEA dev inter network spike interval mean: key: 1 (active); 0 (inactive); for hitc CCTE Shafer MEA dev interburst interval mean: key: 1 (active); 0 (inactive); for hitc CCTE Shafer MEA dev mutual information norm: key: 1 (active); 0 (inactive); for hitc CCTE Shafer MEA dev network spike duration std: key: 1 (active); 0 (inactive); for hitc CCTE Shafer MEA dev network spike number: key: 1 (active); 0 (inactive); for hitc CCTE Shafer MEA dev network spike peak: key: 1 (active); 0 (inactive); for hitc CCTE Shafer MEA dev per burst interspike interval: key: 1 (active); 0 (inactive)
[5] = AUC over 13-day exposure, tcplfit2
[6] = tcplfit2 BMD at benchmark response (1.349*SD of baseline controls)
[7] = tcplfit2 output ACC, activity cutoff in Supplemental Table 1
[8] = top of winning model, response normalized as percent of vehicle control, negative = decrease

[CH3][Hg][Cl] [Methylmercury]
EC50 ([1]; 5th percentile across active AC50 values per chemical, read-out: Minimum potency): 2.41 µM
Difference of minimum potency between BrainSphere MEA assay and rNFA ([1]; 5th percentile of AC50 values by chemical, above 0.5 = more potent in the rNFA): more than 0.5 log10 µM
hitc Mean.Spheroid.Burst.Duration [1, 5]: 1
hitc Mean.Spheroid.Burst.ISI [1, 5]: 1
hitc Mean.Spheroid.Burst.Peak.Firing.Rate [1, 5]: 1
hitc Mean.Spheroid.Firing.Rate [1, 5]: 1
hitc Mean.Spheroid.IBI [1, 5]: 1
hitc Mean.Spheroid.Nonburst.ISI [1, 5]: 1
hitc Mean.Spheroid.Spikes.per.Burst [1, 5]: 1
hitc Mean.Spheroid.Spikes.per.Burst.per.Electrode [1, 5]: 1
hitc Spheroid.Burst.Frequency [1, 5]: 1
hitc Spheroid.Spike.Amplitude.90th.Percentile [1, 5]: 1
Bioactivity trend over time for MFR, mean spike amplitude and burst frequency (qualitative) ([1]; DOE 0-13, highest tested concentrations, Fig. 3): appeared to decrease activity
AC50 ([1]; listed as Methylmercuric(II) chloride, read-out: ac50 Mean.Spheroid.Burst.Duration): 5.9 µM
AC50 ([1]; listed as Methylmercuric(II) chloride, read-out: ac50 Mean.Spheroid.Burst.ISI): 3.3 µM
AC50 ([1]; listed as Methylmercuric(II) chloride, read-out: ac50 Mean.Spheroid.Burst.Peak.Firing.Rate): 3 µM
AC50 ([1]; listed as Methylmercuric(II) chloride, read-out: ac50 Mean.Spheroid.Firing.Rate): 7.7 µM
AC50 ([1]; listed as Methylmercuric(II) chloride, read-out: ac50 Mean.Spheroid.IBI): 6.3 µM
AC50 ([1]; listed as Methylmercuric(II) chloride, read-out: ac50 Mean.Spheroid.Nonburst.ISI): 2.6 µM
AC50 ([1]; listed as Methylmercuric(II) chloride, read-out: ac50 Mean.Spheroid.Spikes.per.Burst): 7.9 µM
AC50 ([1]; listed as Methylmercuric(II) chloride, read-out: ac50 Mean.Spheroid.Spikes.per.Burst.per.Electrode): 6.5 µM
AC50 ([1]; listed as Methylmercuric(II) chloride, read-out: ac50 Spheroid.Burst.Frequency): 2.3 µM
AC50 ([1]; listed as Methylmercuric(II) chloride, read-out: ac50 Spheroid.Spike.Amplitude.90th.Percentile): 16 µM
AC50 ([1]; read-out: ac50 Mean.Spheroid.Burst.Duration): 5.91 µM
AC50 ([1]; read-out: ac50 Mean.Spheroid.Burst.ISI): 3.34 µM
AC50 ([1]; read-out: ac50 Mean.Spheroid.Burst.Peak.Firing.Rate): 3.02 µM
AC50 ([1]; read-out: ac50 Mean.Spheroid.Firing.Rate): 7.68 µM
AC50 ([1]; read-out: ac50 Mean.Spheroid.IBI): 6.32 µM
AC50 ([1]; read-out: ac50 Mean.Spheroid.Nonburst.ISI): 2.56 µM
AC50 ([1]; read-out: ac50 Mean.Spheroid.Spikes.per.Burst): 7.9 µM
AC50 ([1]; read-out: ac50 Mean.Spheroid.Spikes.per.Burst.per.Electrode): 6.46 µM
AC50 ([1]; read-out: ac50 Spheroid.Burst.Frequency): 2.29 µM
AC50 ([1]; read-out: ac50 Spheroid.Spike.Amplitude.90th.Percentile): 16 µM
EC50 ([1]; mean across active AC50 values per chemical, read-out: Mean potency): 6.15 µM
Percent active ([1]; metrics active out of the total number of metrics screened): 100%
BMD Mean.Spheroid.Burst.Duration [1, 6]: 5.5 µM
BMD Mean.Spheroid.Burst.ISI [1, 6]: 2.3 µM
BMD Mean.Spheroid.Burst.Peak.Firing.Rate [1, 6]: 2.6 µM
BMD Mean.Spheroid.Firing.Rate [1, 6]: 7.8 µM
BMD Mean.Spheroid.IBI [1, 6]: 5.9 µM
BMD Mean.Spheroid.Nonburst.ISI [1, 6]: 1.8 µM
BMD Mean.Spheroid.Spikes.per.Burst [1, 6]: 7.7 µM
BMD Mean.Spheroid.Spikes.per.Burst.per.Electrode [1, 6]: 6.2 µM
BMD Spheroid.Burst.Frequency [1, 6]: 2.4 µM
BMD Spheroid.Spike.Amplitude.90th.Percentile [1, 6]: 5.1 µM
ACC Mean.Spheroid.Burst.Duration [1, 7]: 5.4 µM
ACC Mean.Spheroid.Burst.ISI [1, 7]: 1.7 µM
ACC Mean.Spheroid.Burst.Peak.Firing.Rate [1, 7]: 2.5 µM
ACC Mean.Spheroid.Firing.Rate [1, 7]: 8.2 µM
ACC Mean.Spheroid.IBI [1, 7]: 6.3 µM
ACC Mean.Spheroid.Nonburst.ISI [1, 7]: 2.2 µM
ACC Mean.Spheroid.Spikes.per.Burst [1, 7]: 8 µM
ACC Mean.Spheroid.Spikes.per.Burst.per.Electrode [1, 7]: 6.4 µM
ACC Spheroid.Burst.Frequency [1, 7]: 2 µM
ACC Spheroid.Spike.Amplitude.90th.Percentile [1, 7]: 10 µM
Top Mean.Spheroid.Burst.Duration [1, 8]: −97
Top Mean.Spheroid.Burst.ISI [1, 8]: −99
Top Mean.Spheroid.Burst.Peak.Firing.Rate [1, 8]: −95
Top Mean.Spheroid.Firing.Rate [1, 8]: −88
Top Mean.Spheroid.IBI [1, 8]: −94
Top Mean.Spheroid.Nonburst.ISI [1, 8]: −100
Top Mean.Spheroid.Spikes.per.Burst [1, 8]: −100
Top Mean.Spheroid.Spikes.per.Burst.per.Electrode [1, 8]: −95
Top Spheroid.Burst.Frequency [1, 8]: −100
Top Spheroid.Spike.Amplitude.90th.Percentile [1, 8]: −21
Hits ([1]; total number of active endpoints out of 10 MEA activity metrics, 13-day exposure): 10
hitc CCTE_Shafer_MEA_dev_AB ([2]; rNFA mc5 hit call, cytotoxicity AlamarBlue): 1
AC50 ([2]; read-out: ac50 CCTE_Shafer_MEA_dev_AB, rNFA mc5, cytotoxicity AlamarBlue): 0.283 µM
Cytotoxicity in the resazurin assay of the rNFA (in words) ([2]; ref Brown et al. [2016], Carstens et al. [2022], Frank et al. [2017b], Shafer et al. [2019], ToxCast invitrodb (v4.2)): demonstrating cytotoxicity in the rNFA
hitc CCTE_Shafer_MEA_dev_LDH ([3]; rNFA mc5 hit call): 1
AC50 ([3]; read-out: ac50 CCTE_Shafer_MEA_dev_LDH, rNFA mc5): 0.182 µM
AC50 ([4]; aenm active_electrodes_number, read-out: ac50 CCTE_Shafer_MEA_dev_active_electrodes_number): 0.36 µM
AC50 ([4]; aenm burst_duration_mean, read-out: ac50 CCTE_Shafer_MEA_dev_burst_duration_mean): 0.26 µM
AC50 ([4]; aenm burst_rate, read-out: ac50 CCTE_Shafer_MEA_dev_burst_rate): 0.207 µM
AC50 ([4]; aenm bursting_electrodes_number, read-out: ac50 CCTE_Shafer_MEA_dev_bursting_electrodes_number): 0.37 µM
AC50 ([4]; aenm correlation_coefficient_mean, read-out: ac50 CCTE_Shafer_MEA_dev_correlation_coefficient_mean): 0.306 µM
AC50 ([4]; aenm firing_rate_mean, read-out: ac50 CCTE_Shafer_MEA_dev_firing_rate_mean): 0.177 µM
AC50 ([4]; aenm inter_network_spike_interval_mean, read-out: ac50 CCTE_Shafer_MEA_dev_inter_network_spike_interval_mean): 0.006 µM
AC50 ([4]; aenm interburst_interval_mean, read-out: ac50 CCTE_Shafer_MEA_dev_interburst_interval_mean): 0.34 µM
AC50 ([4]; aenm mutual_information_norm, read-out: ac50 CCTE_Shafer_MEA_dev_mutual_information_norm): 0.134 µM
AC50 ([4]; aenm network_spike_duration_std, read-out: ac50 CCTE_Shafer_MEA_dev_network_spike_duration_std): 0.164 µM
AC50 ([4]; aenm network_spike_number, read-out: ac50 CCTE_Shafer_MEA_dev_network_spike_number): 0.087 µM
AC50 ([4]; aenm network_spike_peak, read-out: ac50 CCTE_Shafer_MEA_dev_network_spike_peak): 0.356 µM
AC50 ([4]; aenm per_burst_interspike_interval, read-out: ac50 CCTE_Shafer_MEA_dev_per_burst_interspike_interval): 0.322 µM
AC50 ([4]; aenm per_burst_spike_percent, read-out: ac50 CCTE_Shafer_MEA_dev_per_burst_spike_percent): 0.306 µM
AC50 ([4]; aenm per_network_spike_spike_number_mean, read-out: ac50 CCTE_Shafer_MEA_dev_per_network_spike_spike_number_mean): 0.536 µM
AC50 ([4]; aenm per_network_spike_spike_percent, read-out: ac50 CCTE_Shafer_MEA_dev_per_network_spike_spike_percent): 0.309 µM
AC50 ([4]; aenm spike_duration_mean, read-out: ac50 CCTE_Shafer_MEA_dev_spike_duration_mean): 0.275 µM
hitc CCTE_Shafer_MEA_dev_active_electrodes_number ([4]; rNFA mc5 hit call, aenm active_electrodes_number): 1
hitc CCTE_Shafer_MEA_dev_burst_duration_mean ([4]; rNFA mc5 hit call, aenm burst_duration_mean): 1
hitc CCTE_Shafer_MEA_dev_burst_rate ([4]; rNFA mc5 hit call, aenm burst_rate): 1
hitc CCTE_Shafer_MEA_dev_bursting_electrodes_number ([4]; rNFA mc5 hit call, aenm bursting_electrodes_number): 1
hitc CCTE_Shafer_MEA_dev_correlation_coefficient_mean ([4]; rNFA mc5 hit call, aenm correlation_coefficient_mean): 1
hitc CCTE_Shafer_MEA_dev_firing_rate_mean ([4]; rNFA mc5 hit call, aenm firing_rate_mean): 1
hitc CCTE_Shafer_MEA_dev_inter_network_spike_interval_mean ([4]; rNFA mc5 hit call, aenm inter_network_spike_interval_mean): 1
hitc CCTE_Shafer_MEA_dev_interburst_interval_mean ([4]; rNFA mc5 hit call, aenm interburst_interval_mean): 1
hitc CCTE_Shafer_MEA_dev_mutual_information_norm ([4]; rNFA mc5 hit call, aenm mutual_information_norm): 1
hitc CCTE_Shafer_MEA_dev_network_spike_duration_std ([4]; rNFA mc5 hit call, aenm network_spike_duration_std): 1
hitc CCTE_Shafer_MEA_dev_network_spike_number ([4]; rNFA mc5 hit call, aenm network_spike_number): 1
hitc CCTE_Shafer_MEA_dev_network_spike_peak ([4]; rNFA mc5 hit call, aenm network_spike_peak): 1
hitc CCTE_Shafer_MEA_dev_per_burst_interspike_interval ([4]; rNFA mc5 hit call, aenm per_burst_interspike_interval): 1
hitc CCTE_Shafer_MEA_dev_per_burst_spike_percent ([4]; rNFA mc5 hit call, aenm per_burst_spike_percent): 1
hitc CCTE_Shafer_MEA_dev_per_network_spike_spike_number_mean ([4]; rNFA mc5 hit call, aenm per_network_spike_spike_number_mean): 1
hitc CCTE_Shafer_MEA_dev_per_network_spike_spike_percent ([4]; rNFA mc5 hit call, aenm per_network_spike_spike_percent): 1
hitc CCTE_Shafer_MEA_dev_spike_duration_mean ([4]; rNFA mc5 hit call, aenm spike_duration_mean): 1
